Assay results reported in patent US10858356B2, “Pyrazolopyridine derivative having GLP-1 receptor agonist effect” (Chugai Seiyaku Kabushiki Kaisha, priority 2016, dated 2020).

Molecular target: human GLP1R (Homo sapiens (Human), UniProt P43220)
Assay: In vitro cAMP signal activation in human GLP1R stably-expressing cell line (hGLP1R-HEK293)
Assay type: cell-based
Conditions: cAMP concentration in hGLP1R-HEK293; 100% = 1 nM human GLP-1 (7-37)
Method: <Test Example 1> Measurement of In Vitro cAMP Signal Activation of a Compound in Human GLP1R
A human GLP1R stably-expressing cell line (hGLP1R-HEK293) was used in the experiment. The cells were cultured in a Dulbecco's modified Eagle's medium (DMEM) containing 10% fetal bovine serum (Sigma-Aldrich), 100 units/mL penicillin G and 100 μg/mL streptomycin sulfate (Gibco), and 500 μg/mL Geneticin (Gibco), under a moist atmosphere containing 5% CO2, at 37° C.
hGLP1R-HEK293 was seeded in 96 well plates at 2.0×10^4 cells per well and cultured over night. The medium for culturing the cells was changed to 50 μL of Medium A (DMEM, 20 mM HEPES, 0.05% BSA, 0.5 mM 3-isobutyl-1-methylxanthine) the next day, and the cells were incubated at 37° C. for 30 min. Then, 50 μL of Medium B (DMEM, 20 mM HEPES, 0.05% BSA, 0.5 mM 3-isobutyl-1-methylxanthine) containing GLP-1 or the compound was added, and the cells were incubated at 37° C. for an additional 30 min. Then, 100 μL of Assay lysis buffer (Applied Bioscience) was added, and the cells were incubated at 37° C. for 30 min. The cAMP concentration was quantified using cAMP HiRange kit (Cisbio Bioassays).
By setting the cAMP concentration when the human GLP-1 (7-37) was put into action at a concentration of 1 nM to 100%, the cAMP concentration of each well was converted to a reaction rate (%).

Chain of human GLP1R (P43220 24-463): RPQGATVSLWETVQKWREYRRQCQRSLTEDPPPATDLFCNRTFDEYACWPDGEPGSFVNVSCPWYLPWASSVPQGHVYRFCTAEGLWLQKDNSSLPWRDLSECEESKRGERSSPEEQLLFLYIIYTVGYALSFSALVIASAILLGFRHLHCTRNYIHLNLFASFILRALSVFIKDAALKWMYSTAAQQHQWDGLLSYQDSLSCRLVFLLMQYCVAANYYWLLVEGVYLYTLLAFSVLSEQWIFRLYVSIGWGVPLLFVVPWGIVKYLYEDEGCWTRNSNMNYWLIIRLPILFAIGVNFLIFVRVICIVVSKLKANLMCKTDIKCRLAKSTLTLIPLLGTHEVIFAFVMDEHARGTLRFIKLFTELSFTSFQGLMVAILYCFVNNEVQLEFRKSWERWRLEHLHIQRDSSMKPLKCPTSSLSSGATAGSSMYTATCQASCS

SMILES | EC50
Cc1cc(-n2nc3c(c2-n2ccn(-c4ccc5c(cnn5CC5(C)COC5)c4F)c2=O)[C@H](C)N(C(=O)c2cc4cc(C5CCOCC5)ccc4n2[C@@]2(c4noc(=O)[nH]4)C[C@@H]2C)CC3)cc(C)c1F [Example 29, 3-[(1S,2S)-1-[2-[(4S)-2-(4-fluoro-3,5-dimethylphenyl)-3-[3-[4-fluoro-1-[(3-methyloxetan-3-yl)methyl]indazol-5-yl]-2-oxoimidazol-1-yl]-4-methyl-6,7-dihydro-4H-pyrazolo[4,3-c]pyridine-5-carbonyl]-5-(oxan-4-yl)indol-1-yl]-2-methylcyclopropyl]-4H-1,2,4-oxadiazol-5-one] | 1.4 nM
Cc1cc(-n2nc3c(c2-n2ccn(-c4ccc5c(cnn5CC(C)(C)O)c4F)c2=O)[C@H](C)N(C(=O)c2cc4cc(C5CCOCC5)ccc4n2[C@@]2(c4noc(=O)[nH]4)C[C@@H]2C)CC3)cc(C)c1F [Example 30, 3-[(1S,2S)-1-[2-[(4S)-2-(4-fluoro-3,5-dimethylphenyl)-3-[3-[4-fluoro-1-(2-hydroxy-2-methylpropyl)indazol-5-yl]-2-oxoimidazol-1-yl]-4-methyl-6,7-dihydro-4H-pyrazolo[4,3-c]pyridine-5-carbonyl]-5-(oxan-4-yl)indol-1-yl]-2-methylcyclopropyl]-4H-1,2,4-oxadiazol-5-one] | 1.4 nM
COCCn1ncc2cc(-n3ccn(-c4c5c(nn4-c4cc(C)c(F)c(C)c4)CCN(C(=O)c4cc6cc([C@H]7CCOC(C)(C)C7)ccc6n4[C@@]4(c6noc(=O)[nH]6)C[C@@H]4C)[C@H]5C)c3=O)ccc21 [Example 31, 3-[(1S,2S)-1-[5-[(4S)-2,2-dimethyloxan-4-yl]-2-[(4S)-2-(4-fluoro-3,5-dimethylphenyl)-3-[3-[1-(2-methoxyethyl)indazol-5-yl]-2-oxoimidazol-1-yl]-4-methyl-6,7-dihydro-4H-pyrazolo[4,3-c]pyridine-5-carbonyl]indol-1-yl]-2-methylcyclopropyl]-4H-1,2,4-oxadiazol-5-one] | 0.74 nM
Cc1cc(-n2nc3c(c2-n2ccn(-c4ccc5c(cnn5CC(F)(F)F)c4F)c2=O)[C@H](C)N(C(=O)c2cc4cc([C@H]5CCOC(C)(C)C5)ccc4n2[C@@]2(c4noc(=O)[nH]4)C[C@@H]2C)CC3)cc(C)c1F [Example 35, 3-[(1S,2S)-1-[5-[(4S)-2,2-dimethyloxan-4-yl]-2-[(4S)-2-(4-fluoro-3,5-dimethylphenyl)-3-[3-[4-fluoro-1-(2,2,2-trifluoroethyl)indazol-5-yl]-2-oxoimidazol-1-yl]-4-methyl-6,7-dihydro-4H-pyrazolo[4,3-c]pyridine-5-carbonyl]indol-1-yl]-2-methylcyclopropyl]-4H-1,2,4-oxadiazol-5-one] | 3.2 nM
COCCn1ncc2c(F)c(-n3ccn(-c4c5c(nn4-c4cc(C)c(F)c(C)c4)CCN(C(=O)c4cc6cc([C@H]7CCOC(C)(C)C7)ccc6n4[C@@]4(c6noc(=O)[nH]6)C[C@@H]4C)[C@H]5C)c3=O)ccc21 [Example 36, 3-[(1S,2S)-1-[5-[(4S)-2,2-dimethyloxan-4-yl]-2-[(4S)-2-(4-fluoro-3,5-dimethylphenyl)-3-[3-[4-fluoro-1-(2-methoxyethyl)indazol-5-yl]-2-oxoimidazol-1-yl]-4-methyl-6,7-dihydro-4H-pyrazolo[4,3-c]pyridine-5-carbonyl]indol-1-yl]-2-methylcyclopropyl]-4H-1,2,4-oxadiazol-5-one] | 2.1 nM
Cc1cc(-n2nc3c(c2-n2ccn(-c4ccc5c(cnn5CC5(C)COC5)c4F)c2=O)[C@H](C)N(C(=O)c2cc4cc([C@H]5CCOC(C)(C)C5)ccc4n2[C@@]2(c4noc(=O)[nH]4)C[C@@H]2C)CC3)cc(C)c1F [Example 37, 3-[(1S,2S)-1-[5-[(4S)-2,2-dimethyloxan-4-yl]-2-[(4S)-2-(4-fluoro-3,5-dimethylphenyl)-3-[3-[4-fluoro-1-[(3-methyloxetan-3-yl)methyl]indazol-5-yl]-2-oxoimidazol-1-yl]-4-methyl-6,7-dihydro-4H-pyrazolo[4,3-c]pyridine-5-carbonyl]indol-1-yl]-2-methylcyclopropyl]-4H-1,2,4-oxadiazol-5-one] | 2.5 nM
Cc1cc(-n2nc3c(c2-n2ccn(-c4ccc5c(cnn5CC(C)(C)O)c4F)c2=O)[C@H](C)N(C(=O)c2cc4cc([C@H]5CCOC(C)(C)C5)ccc4n2[C@@]2(c4noc(=O)[nH]4)C[C@@H]2C)CC3)cc(C)c1F [Example 38, 3-[(1S,2S)-1-[5-[(4S)-2,2-dimethyloxan-4-yl]-2-[(4S)-2-(4-fluoro-3,5-dimethylphenyl)-3-[3-[4-fluoro-1-(2-hydroxy-2-methylpropyl)indazol-5-yl]-2-oxoimidazol-1-yl]-4-methyl-6,7-dihydro-4H-pyrazolo[4,3-c]pyridine-5-carbonyl]indol-1-yl]-2-methylcyclopropyl]-4H-1,2,4-oxadiazol-5-one] | 1.7 nM
Cc1cc(-n2nc3c(c2-n2ccn(-c4ccc5c(c4)CC(=O)N(C)C5)c2=O)[C@H](C)N(C(=O)c2cc4cc([C@H]5CCOC(C)(C)C5)ccc4n2[C@@]2(c4noc(=O)[nH]4)C[C@@H]2C)CC3)cc(C)c1F [Example 39, 3-[(1S,2S)-1-[5-[(4S)-2,2-dimethyloxan-4-yl]-2-[(4S)-2-(4-fluoro-3,5-dimethylphenyl)-4-methyl-3-[3-(2-methyl-3-oxo-1,4-dihydroisoquinolin-6-yl)-2-oxoimidazol-1-yl]-6,7-dihydro-4H-pyrazolo[4,3-c]pyridine-5-carbonyl]indol-1-yl]-2-methylcyclopropyl]-4H-1,2,4-oxadiazol-5-one] | 1 nM
Cc1cc(-n2nc3c(c2-n2ccn(-c4ccc5c(cnn5[C@H]5CCOC5)c4F)c2=O)[C@H](C)N(C(=O)c2cc4cc([C@H]5CCOC(C)(C)C5)ccc4n2[C@@]2(c4noc(=O)[nH]4)C[C@@H]2C)CC3)cc(C)c1F [Example 40, 3-[(1S,2S)-1-[5-[(4S)-2,2-dimethyloxan-4-yl]-2-[(4S)-2-(4-fluoro-3,5-dimethylphenyl)-3-[3-[4-fluoro-1-[(3S)-oxolan-3-yl]indazol-5-yl]-2-oxoimidazol-1-yl]-4-methyl-6,7-dihydro-4H-pyrazolo[4,3-c]pyridine-5-carbonyl]indol-1-yl]-2-methylcyclopropyl]-4H-1,2,4-oxadiazol-5-one] | 2.2 nM
Cc1cc(-n2nc3c(c2-n2ccn(-c4ccc5c(cnn5C)c4F)c2=O)[C@H](C)N(C(=O)c2cc4cc([C@H]5CCO[C@@H](C)C5)ccc4n2[C@@]2(c4noc(=O)[nH]4)C[C@@H]2C)CC3)cc(C)c1F [Example 41, 3-[(1S,2S)-1-[2-[(4S)-2-(4-fluoro-3,5-dimethylphenyl)-3-[3-(4-fluoro-1-methylindazol-5-yl)-2-oxoimidazol-1-yl]-4-methyl-6,7-dihydro-4H-pyrazolo[4,3-c]pyridine-5-carbonyl]-5-[(2S,4S)-2-methyloxan-4-yl]indol-1-yl]-2-methylcyclopropyl]-4H-1,2,4-oxadiazol-5-one] | 2.4 nM
Cc1cc(-n2nc3c(c2-n2ccn(-c4ccc5c(cnn5CC(F)(F)F)c4F)c2=O)[C@H](C)N(C(=O)c2cc4cc([C@H]5CCOC(C)(C)C5)ccc4n2[C@@]2(c4noc(=O)[nH]4)C[C@@H]2C)CC3)cc(C)c1Cl [Example 42, 3-[(1S,2S)-1-[2-[(4S)-2-(4-chloro-3,5-dimethylphenyl)-3-[3-[4-fluoro-1-(2,2,2-trifluoroethyl)indazol-5-yl]-2-oxoimidazol-1-yl]-4-methyl-6,7-dihydro-4H-pyrazolo[4,3-c]pyridine-5-carbonyl]-5-[(4S)-2,2-dimethyloxan-4-yl]indol-1-yl]-2-methylcyclopropyl]-4H-1,2,4-oxadiazol-5-one] | 1.9 nM
COCCn1ncc2c(F)c(-n3ccn(-c4c5c(nn4-c4cc(C)c(Cl)c(C)c4)CCN(C(=O)c4cc6cc([C@H]7CCOC(C)(C)C7)ccc6n4[C@@]4(c6noc(=O)[nH]6)C[C@@H]4C)[C@H]5C)c3=O)ccc21 [Example 43, 3-[(1S,2S)-1-[2-[(4S)-2-(4-chloro-3,5-dimethylphenyl)-3-[3-[4-fluoro-1-(2-methoxyethyl)indazol-5-yl]-2-oxoimidazol-1-yl]-4-methyl-6,7-dihydro-4H-pyrazolo[4,3-c]pyridine-5-carbonyl]-5-[(4S)-2,2-dimethyloxan-4-yl]indol-1-yl]-2-methylcyclopropyl]-4H-1,2,4-oxadiazol-5-one] | 1.5 nM
Cc1cc(-n2nc3c(c2-n2ccn(-c4ccc5c(cnn5CC(F)(F)F)c4F)c2=O)[C@H](C)N(C(=O)c2cc4cc(C5CCOCC5)ccc4n2[C@@]2(c4noc(=O)[nH]4)C[C@@H]2C)CC3)cc(C)c1Cl [Example 44, 3-[(1S,2S)-1-[2-[(4S)-2-(4-chloro-3,5-dimethylphenyl)-3-[3-[4-fluoro-1-(2,2,2-trifluoroethyl)indazol-5-yl]-2-oxoimidazol-1-yl]-4-methyl-6,7-dihydro-4H-pyrazolo[4,3-c]pyridine-5-carbonyl]-5-(oxan-4-yl)indol-1-yl]-2-methylcyclopropyl]-4H-1,2,4-oxadiazol-5-one] | 1.5 nM
